Earlier results in patent US8062666B2 (priority 2001, dated 2011).
Where two headings read alike, the source gives them in different places.

Columns and labels:
[1] = 0.2 M sodium chloride
[2] = coated spheroid extended release dosage form of WO 99/22724, dissolution specification

## COc1ccc(C(CN(C)C)C2(O)CCCCC2)cc1.Cl (racemic) [Venlafaxine hydrochloride, (R/S)-1-[2-(dimethylamino)-1-(4-methoxyphenyl)-ethyl]cyclohexanol hydrochloride]
Conventional release dosage forms (tablets)
  time at which peak blood plasma levels appeared: 2 to 4 h
Extended release dosage forms
  time for which plasma levels rose after administration (time to peak): five to eight
[1]
  octanol:water partition coefficient: 0.43
[2]; 2 hrs
  Average % venlafaxine HCL release: <30%
[2]; 4 hrs
  Average % venlafaxine HCL release: 30-55%
[2]; 8 hrs
  Average % venlafaxine HCL release: 55-80%
[2]; 12 hrs
  Average % venlafaxine HCL release: 65-90%
[2]; 24 hrs
  Average % venlafaxine HCL release: >80%
